This note sets out measurements from publication PMC3510254 (PLoS Pathogens, 2012).

One data set has as its target T1, immunoproteasome (Homo sapiens, UniProt P28062+P28065+P40306).
T1 construct: Constitutive and immuno-20S proteasomes were purified from LCL721.174 and LCL721 human EBV-transformed B cell lines; endogenous in cells; host or cells: LCL721 human EBV-transformed B cell line
Kind of data set: In vitro proteasomal peptide digest with mass spectrometry. Conditions: 25-mer precursor, 1, 2, 4 and 6 hours; 2 µg or 4 µg proteasome; extracted ion chromatograms; Fig 6; triplicate. It counts as in vitro ADME.

Another data set relates to proteasome. As to the kind of experiment: Proteasome inhibition of endogenous antigen processing in vHCV 827-infected B-LCLs, IFN-γ read-out of CTL lines. It counts as cell-based, human.
In data set [1] the test system is immunoproteasome (20S). Kind of data set: purified immunoproteasome in digestion buffer (20 mM HEPES-NaOH pH 7.6, 2 mM MgAc2, 0.5 mM DTT). The following applies: human, up to 6 hours.
Data set [2] deals with constitutive proteasome (20S). Kind of data set: purified constitutive proteasome in digestion buffer (20 mM HEPES-NaOH pH 7.6, 2 mM MgAc2, 0.5 mM DTT). The following applies: human, up to 6 hours.
The test system of data set [3] is immunoproteasome (20S). Kind of data set: purified immunoproteasome, 4 µg in the degradation experiment, in digestion buffer. The following applies: human, up to 6 hours.
Data set [4] concerns constitutive proteasome (20S). Kind of data set: purified constitutive proteasome, 4 µg in the degradation experiment, in digestion buffer. Conditions: human, up to 6 hours.

Where no end group is shown, it is not given here.

VRVCEKMARMILMTHFPLAVMGSSY [B27-in-A2]: at immunoproteasome, the “precursor degradation rate relative to A2-in-A2 peptide, immunoproteasomal digestion” value is on record as “degraded slightly more slowly than the A2-in-A2 peptide”.

For `CC[C@H](C)[C@H](NC(=O)[C@H]([C@@H](C)CC)N(C)C(C)=O)C(=O)N[C@H](C(=O)N[C@@H](CC(C)C)C(=O)[C@@]1(C)CO1)[C@@H](C)O` [epoxomicin], the “effect on induction of epitope-specific IFN-γ production and number of responding CD8+ T cells” value in the data set with proteasome is “delay the induction of epitope-specific IFN-γ production and considerably decrease the number of responding CD8+ T cells”.

As to AQTFLATCINGVCWTVYHGAGTRT, the fragment found result (in the data set with immunoproteasome (20S) [1]; in data set [2]) was “CINGVCWTV” each time.

As for VRVCEKMARMILMTHFPLAVMGSSY, the fragment found entry (in the data set with immunoproteasome (20S) [3]; in data set [4]) was “ARMILMTHF” throughout.

As for `CC(=O)N[C@@H](CSC(=O)[C@]1([C@@H](O)C(C)C)NC(=O)[C@H](C)[C@@H]1O)C(=O)O` [lactacystin], the “reductions in the number of responding CD8+ T cells” value with proteasome is given as 30–70%.
